Assays:
[1] = molecular target: T1, PD-L1 (Mus musculus, UniProt Q9EP73); assay: Immunoblot analysis of PD-L1 degradation in 4T1 cells after eDePLT treatment; assay type: cell-based, murine; settings: 2-h HAI pretreatment, 1×10^8 eDePLTs 8 h
T1 construct: endogenous in cells; host or cells: 4T1
Procedure: (§1) Immunoblot analysis: Immunoblot analysis was used to evaluate the expression of BRD4, HSP90, HSP90a, and PD-L1 in 4T1, WT MDA-MB-231, HSP90α-KO MDA-MB-231 or PEA-10 cells after various treatments and also served as the detection method for IP or co-IP experiments. The procedures for preparing IP or co-IP samples were indicated in the relevant experimental parts.
(§2) Sample preparation for 4T1 cells after DePLT treatment: 4T1 cells were seeded in 6-well culture plates with a density 5×10^4 cells in each well and cultured for 24 h. The engineered platelets, including iDePLT and eDePLT, were generated by incubating the fresh platelets in PBS containing iHAC or eHAC at 20 μM for 2 h. The fresh nPLT was used as the control. Then, if HAI pretreatment was performed, the cells were incubated in the HAI-containing blank medium at different concentrations for 2 h and washed with PBS twice before the following treatments. […]
(§3) General procedures for immunoblot analysis: After a 30-min lysis, the lysates were centrifuged at 10,000 g for 10 minutes at 4° C., and the corresponding supernatants were collected, followed by quantification of the total proteins in the supernatant through the BCA assay. […] Finally, the bands were treated with electrochemiluminescence (ECL) western blot substrate, detected by the iBright™ imaging system and quantified with ImageJ software. […]

[2] = system: WT MDA-MB-231 cells; assay: In-gel fluorescence detection of NA-647 internalization in WT MDA-MB-231 cells; assay type: cell-based, human; settings: WT MDA-MB-231, 2-h HAI at various concentrations prior to HAC-B 5 μM 4 h
Procedure: In-gel fluorescence detection: In-gel fluorescence was mainly used to investigate the internalization of NeutrAvidin™_647 in HAC-B-treated cancer cells.
Sample preparation: 4T1 or WT MDA-MB-231 cells were seeded in 6-well culture plates with a density of 5×10^4 cells in each well and cultured for 24 h. If HAI pretreatment was performed, the cells were incubated in the HAI-containing blank medium at different concentrations for 2 h and washed with PBS twice before the following treatments. Then, the cells were treated with free HAC-B or the combinations of various ligands at the indicated concentrations for the predetermined time points. Next, the drug-containing medium was removed, and PBS was used to wash the cells twice, followed by incubating the cells in the blank medium containing NeutrAvidin™ DyLight™ 650 (NA-647, Invitrogen/84607) at 0.5 μM for 1 h. Finally, the cells were washed with PBS and lysed on ice with the RIPA buffer containing PMSF (1 mM) and the phosphatase inhibitor cocktail for 30 min. A s for the 4T1 cells cotreated with NA-647 and HAC-B, the cells after 24-h incubation were treated with the blank medium containing NA-647 at 0.5 μM and HAC-B at various concentrations for 2 h before cell lysis.
In-gel fluorescence imaging: After 30-min lysis, the lysates were centrifuged at 10,000 g for 10 minutes at 4° C., and the corresponding supernatants were collected, followed by quantification of the total proteins in the supernatant through the BCA assay. Afterward, the proteins in the supernatant were mixed with ¼ volume of 5× sample buffer formulated by Tris-HCl (pH 6.8, 312.5 mM), sucrose (25%), SDS (10%), bromophenol blue (0.025%), and dithiothreitol (DTT, 250 mM). After incubation for 1 h at room temperature, equal amounts of proteins from different samples ([…] per lane) were loaded into the 12% Bis-Tris gel. After the proteins were separated, the gels were subjected to fluorescence imaging with the ChemiDoc™ MP imaging system (Bio-Rad).

[3] = molecular target: T2, BRD4 (Mus musculus, UniProt Q9ESU6); assay: Immunoblot analysis of BRD4 degradation in 4T1 cells after free HAC treatment; assay type: cell-based, murine; settings: 4T1 cells
T2 construct: endogenous in cells; host or cells: 4T1
Text: as §1
(§4) Sample preparation for various cancer cells after free HAC treatment: Various cells, including 4T1, WT MDA-MB-231, HSP90α-KO MDA-MB-231, or PEA-10 cells, were seeded in 6-well culture plates with a density of 5×10^4 cells in each well and cultured for 24 h. Then, if HAI pretreatment was performed, the cells were incubated in the HAI-containing blank medium at different concentrations for 2 h and washed with PBS twice before the following treatments. The medium in the corresponding wells was replaced with 1 mL of blank medium containing the DMSO vehicle, HACs, or the combinations of various free ligands at the predetermined concentrations. After incubation for the indicated time points, cells were washed with PBS and lysed on ice with the relevant lysis buffer containing PMSF (1 mM) and the phosphatase inhibitor cocktail for 30 min. As for the conditioned medium (CM), the culturing complete medium of the corresponding cancer cells in each well was collected after 24-h incubation and subjected to centrifugation at 2000 rpm for 5 min to obtain the supernatant. The filtrate of the supernatants was collected following filtration over a 0.45 μm filter, serving as the CM. Regarding the cell samples for BRD4 detection, the lysis buffer containing HEPES-KOH (pH=7.5, 10 mM), NaCl (500 mM), EDTA (5 mM), NP-40 (1%), and SDS (0.1%) was used with the indicated PMSF and phosphatase inhibitor cocktail. As for PD-L1 detection, RIPA buffer (Thermo Fisher Scientific/J63306.AP) was used with the indicated PMSF and phosphatase inhibitor cocktail.
General procedures for immunoblot analysis: After a 30-min lysis, the lysates were centrifuged at 10,000 g for 10 minutes at 4° C., and the corresponding supernatants were collected, followed by quantification of the total proteins in the supernatant through the BCA assay. Afterward, the proteins in the supernatant were mixed with the loading buffer and heated at 95° C. for 15 min. Equal amounts of proteins from different samples ([…]) were loaded into the Bis-Tris gel formulated with Bis-Tis buffer, 30% acrylamide/Bis, 10% ammonium persulfate (APS) solution, and TEMED. The separated proteins were transferred to polyvinylidene fluoride (PVDF) membranes before the membranes were blocked with 5% nonfat milk in PBS-T. Next, the PVDF membranes were incubated with primary antibodies overnight at 4° C., if necessary, followed by the incubation with the goat-anti-rabbit IgG H & L (HRP) secondary antibodies at room temperature for 2 h. Finally, the bands were treated with electrochemiluminescence (ECL) western blot substrate, detected by the iBright™ imaging system and quantified with ImageJ software. 8% Bis-Tris gels were used for BRD4 detection, and 10% gels were adopted to analyze PD-L1.

[4] = molecular target: T2, BRD4; assay: Immunoblot analysis of BRD4 degradation in 4T1 cells after DePLT or PMP treatment; assay type: cell-based, murine; settings: 2-h HAI pretreatment, 1×10^8 iDePLTs 12 h
Procedure: as §1, §2, §3

[5] = molecular target: T3, BRD4 (Homo sapiens, UniProt O60885); assay: Immunoblot analysis of BRD4 degradation in WT MDA-MB-231 cells after free HAC treatment; assay type: cell-based; settings: lower or higher effective concentrations, 12 h
T3 construct: endogenous in cells; host or cells: WT MDA-MB-231 (ATCC)
Text: as §1
as §4, with “Regarding the cell samples for BRD4 detection, the lysis buffer containing HEPES-KOH (pH=7.5, 10 mM), NaCl (500 mM), EDTA (5 mM), NP-40 (1%), and SDS (0.1%) was used with the indicated PMSF and phosphatase inhibitor cocktail. As for PD-L1 detection, RIPA buffer (Thermo Fisher Scientific/J63306.AP) was used with the indicated PMSF and phosphatase inhibitor cocktail.” left out
as §3

T1 sequence (Q9EP73 19-290): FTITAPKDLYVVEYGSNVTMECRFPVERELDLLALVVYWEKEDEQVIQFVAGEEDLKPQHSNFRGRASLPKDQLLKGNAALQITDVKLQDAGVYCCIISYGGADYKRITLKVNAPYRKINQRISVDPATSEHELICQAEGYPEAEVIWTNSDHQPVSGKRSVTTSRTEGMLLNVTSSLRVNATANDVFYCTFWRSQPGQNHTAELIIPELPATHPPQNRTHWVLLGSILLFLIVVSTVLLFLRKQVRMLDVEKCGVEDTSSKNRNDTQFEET

Row | BRD4 degradation compared to iHAC [5] | BRD4 degradation compared to iHAC ([3]; lower or higher effective concentrations, 12 h) | Structure (SMILES) | PD-L1 degradation by eDePLT after HAI pretreatment of target cells [1] | NA-647 uptake by HAC-B after HAI preincubation [2] | BRD4 degradation by iHAC after HAI pretreatment ([3]; 2-h HAI pretreatment at various concentrations, then iHAC 10 μM 12 h) | BRD4 downregulation by iDePLT after HAI pretreatment of target cells [4]
1 |  |  | Nc1ncnc2c1nc(Sc1cc3c(cc1I)OCO3)n2CCCNCc1cccc(S(=O)(=O)F)c1 [HAI, 3-(((3-(6-amino-8-((6-iodobenzo[d][1,3]dioxol-5-yl)thio)-9H-purin-9-yl)propyl)amino)methyl)benzenesulfonyl fluoride] | failed to rescue the PD-L1 degradation | largely compromised NA-647 uptake | inferior BRD4 degradation efficacy | failed to relieve BRD4 downregulation
2 | almost no substantial BRD4 degradation | almost no substantial BRD4 degradation | Cc1sc2c(c1C)C(c1ccc(Cl)cc1)=N[C@H](CC(=O)NCc1cn(CCCC(=O)N(CC#N)S(=O)(=O)c3ccc(C(=O)NCCCn4c(Sc5cc6c(cc5I)OCO6)nc5c(N)ncnc54)cc3)nn1)c1nnc(C)n1-2 [iHACepi, (R)—N-(3-(6-amino-8-((6-iodobenzo[d][1,3]dioxol-5-yl)thio)-9H-purin-9-yl)propyl)-4-(N-(4-(4-((2-(4-(4-chlorophenyl)-2,3,9-trimethyl-6H-thieno[3,2-f][1,2,4]triazolo[4,3-a][1,4]diazepin-6-yl)acetamido)methyl)-1H-1,2,3-triazol-1-yl)butanoyl)-N-(cyanomethyl)sulfamoyl)benzamide] |  |  |  | 
